Read-outs that look alike come from different tables or passages of the source.
Key:
Dd2b2^31-R1.2 = test: [3H]-hypoxanthine incorporation assay; format: cell-based, Plasmodium falciparum
Procedure: (§1) P. falciparum asexual blood stage parasites were cultured in human red blood cells (RBC, Blutspende SRK, Zurich) at a hematocrit of 5% in RPMI 1640 medium. The RPMI 1640 medium (ThermoFisher Scientific #51800−043) was supplemented with the following: 24 mM NaHCO3 (pH 7.3, Sigma-Aldrich #31437−500G-R), 25 mM Hepes (Sigma-Aldrich #H4034−500G), 0.36 mM hypoxanthine (Sigma-Aldrich # H9377−25G), 100 µg mL^-1 neomycin (Sigma-Aldrich #N6386−100G) and 0.5% Albumax II (Thermo Fisher #11021−045). Additionally, 2 mM choline chloride (279 mg/L, Sigma-Aldrich #C7527−100G) was added to the culture to block the induction of sexual commitment as described. ^[31^] The RPMI 1640 medium and components were dissolved in water (Milli-Q purified), stirred for at least 3 h, and then sterile filtered (0.22 μm pore size) with a bottle top filter (Corning # 431118). Parasite cultures were maintained in an atmosphere of 3% O2, 4% CO2, and 93% N2 in air-tight chambers at 37 °C. The [^3H]-hypoxanthine incorporation assay was used to test compound activity in the specific parasite lines as described.^[32^] Briefly, compounds were dissolved in DMSO (10 mM) and diluted in a hypoxanthine-free culture medium. A limiting dilution was performed over a 64-fold range (6-step twofold dilution) in a 96-well plate in duplicates. For every starting concentration, a limiting dilution was performed over a 64-fold range (6-step twofold dilution) in a 96-well plate in two biological duplicates. Parasites were added at 100 µL to each well containing the compound to obtain a final parasitemia of 0.3% and haematocrit of 1.25%. The plates were incubated for 48 h before 0.25 µCi of [^3H]-hypoxanthine was added per well for an additional 24 h. Parasites were harvested on a glass-fiber filter with a Microbeta FilterMate cell harvester (Perkin Elmer, Waltham, USA) and radioactivity was counted using a MicroBeta2 liquid scintillation counter (Perkin Elmer, Waltham, US). […] The fifty percent inhibitory concentration (IC50) was calculated by using nonlinear, four parameter (variable slope) curve fitting as described ^[33^] after importing into GraphPad Prism (version 8.3.0).
(§2) 31 was used for resistance selection studies using the strain Dd2b2 (kindly provided by David Fidock). Resistance selection was done as described in ^[34^]. As summarized in Table S3, an initial inoculum of 2 x 10^9 asexual blood stage parasites (at 2-2.5% parasitemia) were cultured in three independent flasks. […] Cloning via limiting dilution was performed to obtain resistant clones for further characterization as described in section 2.2.5.

Dd2b2^31-R3.2 = test: [3H]-hypoxanthine incorporation assay; format: cell-based, Plasmodium falciparum
Procedure: as §1, §2

Dd2b2^31-R2.2 = test: [3H]-hypoxanthine incorporation assay; format: cell-based, Plasmodium falciparum
Procedure: as §1, §2

Dd2b2^31-R1.1 = test: [3H]-hypoxanthine incorporation assay; format: cell-based, Plasmodium falciparum
Procedure: as §1, §2

Dd2b2^31-R2.1 = test: [3H]-hypoxanthine incorporation assay; format: cell-based, Plasmodium falciparum
Procedure: as §1, §2

Dd2b2^WT = test: [3H]-hypoxanthine incorporation assay; format: cell-based, Plasmodium falciparum; conditions: for IC50: Plasmodium falciparum
Procedure: as §1, §2

Dd2b2^31-R3.1 = test: [3H]-hypoxanthine incorporation assay; format: cell-based, Plasmodium falciparum
Procedure: as §1, §2

[1] = tested on: RRM domain-containing protein (W7KAG3); test: iSPP profiling, P. falciparum lysate; format: binding, Plasmodium falciparum; conditions: 100 µM compound 34
Procedure: (§3) P. falciparum NF54 lysates were extracted as described in ^[26^] . The parasite asynchronous culture was extracted once 3-5% parasitemia was reached. Saponin lysis was done as described in 2.2.10. Once the parasite pellet was obtained, 2.5 volumes of ice-cold lysis buffer (50 mM Tris/HCl pH 7.5 (Avantor), 5% glycerol (Sigma-Aldrich), 150 mM NaCl (Carl Roth), 1.5 mM MgCl2 (Sigma-Aldrich), 1 mM DTT (Carl Roth), 0.8% IGEPAL CA-630 (Sigma-Aldrich), 1X Halt Protease and Phosphatase Inhibitor-Cocktails EDTA-free (Thermo Fisher Scientific)) was added to the parasite pellet. The lysate solution was subjected to three cycles of flash freeze-thaw with liquid nitrogen and ddH2O at RT. The lysates were centrifuged at 20,000 g for 20 minutes at 4 °C. The soluble protein fraction (supernatant) was collected and the protein content was quantified using the BCA assay (Pierce™ BCA Protein Assay Kit, Thermo Fisher Scientific). The lysate was stored at -80 °C until further use.
(§4) The P. falciparum lysate was thawed on ice and diluted to 0.8 mg/mL. The lysate was aliquoted, and each aliquot was incubated with either a vehicle control (DMSO), 34 (dissolved in DMSO), or varying concentrations of 31 (dissolved in DMSO) at 0.01 µM, 0.1 µM, 10 µM, 50 µM, and 100 µM. Subsequently, the samples were incubated at room temperature for 30 minutes using a rotating mixer. After distribution into a 96-well plate, the samples were treated with increasing concentrations of A.E.A. (v/v) ranging from 14% to 28% (14, 16, 18, 20, 22, 24, 26, and 28%). Following a 20-minute incubation at 37°C with shaking at 750 rpm, the samples were centrifuged at 4400 g for 35 minutes to remove precipitated proteins. The soluble fractions were then pooled in equal volumes into a single sample using the Bravo Automated Liquid Handling Platform. The pooled samples were subsequently prepared for LC-MS/MS analysis.
(§5) The raw LFQ-DIA intensity values of biological replicates across all conditions were normalized to the median abundance using Excel. The normalized values were then log2 transformed in Perseus (v2.0.10.0).^[58^] Missing values were imputed from a normal distribution (width 0.3, down shift 1.5), and p-values were obtained using a two-sample t-test over replicates with a permutation-based false discovery rate correction (FDR 0.05). Volcano plots were generated in RStudio using the EnhancedVolcano package (v. 1.20.0), ^[59^] plotting proteins by statistical significance (y-axis: –Log10 p-value) versus the magnitude of change (x-axis: log2 fold change of protein intensities for each compound condition relative to the vehicle control). The heatmap was generated in Perseus (v2.0.10.0). Dose-dependent curves were generated using normalized protein intensity values, expressed as a ratio to the vehicle control. Plots were created in GraphPad Prism (v8.3.0) using a nonlinear regression model.

[2] = tested on: Uncharacterized protein (W7JSC9); test: iSPP profiling, P. falciparum lysate; format: binding, Plasmodium falciparum; conditions: 100 µM compound 34
Procedure: as §3, §4, §5

[3] = Plasmodium falciparum, read-out: mean IC50 value ± s.d.

| Structure (SMILES) | IC50 fold change relative to Dd2b2^WT (Dd2b2^31-R1.2; Dd2b2^31-R1.2) | IC50 (Dd2b2^31-R1.2; [3]) | IC50 fold change relative to Dd2b2^WT (Dd2b2^31-R3.2; Dd2b2^31-R3.2) | IC50 (Dd2b2^31-R3.2; [3]) | IC50 fold change relative to Dd2b2^WT (Dd2b2^31-R2.2; Dd2b2^31-R2.2) | IC50 (Dd2b2^31-R2.2; [3]) | IC50 fold change relative to Dd2b2^WT (Dd2b2^31-R1.1; Dd2b2^31-R1.1) | IC50 (Dd2b2^31-R1.1; [3]) | IC50 fold change relative to Dd2b2^WT (Dd2b2^31-R2.1; Dd2b2^31-R2.1) | IC50 (Dd2b2^31-R2.1; [3]) | IC50 fold change relative to Dd2b2^WT (Dd2b2^WT; Dd2b2^WT) | IC50 (Dd2b2^WT; 72 h, read-out: Parent (Dd2b2^WT) IC50) | IC50 (Dd2b2^WT; read-out: mean IC50 value ± s.d.) | IC50 fold change relative to Dd2b2^WT (Dd2b2^31-R3.1; Dd2b2^31-R3.1) | IC50 (Dd2b2^31-R3.1; [3]) | log2FC [1] | log2FC [2] |
| --- | --- | --- | --- | --- | --- | --- | --- | --- | --- | --- | --- | --- | --- | --- | --- | --- | --- |
| CN1CCN(Cc2ccc(O)c(NC(=O)c3cccc(Oc4cc(C(F)(F)F)ccn4)c3)c2)CC1 [Compound 31, N-(2-hydroxy-5-((4-methylpiperazin-1-yl)methyl)phenyl)-3-((4-(trifluoromethyl)pyridin-2-yl)oxy)benzamide] | 11.9 | 0.159 ± 0.0329 µM | 19.8 | 0.264 ± 0.0405 µM | 11.6 | 0.154 ± 0.0263 µM | 2.7 | 0.0358 ± 0.0112 µM | 16.9 | 0.225 ± 0.0353 µM | 1.0 | 0.0045 ± 0.0007 µM | 0.0133 ± 0.0017 µM | 14.5 | 0.193 ± 0.0353 µM | – | – |
| O=C(Nc1cc(CN2CCOCC2)ccc1F)c1cccc(Oc2cc(C(F)(F)F)ccn2)c1 [Compound 34, N-(2-Fluoro-5-(morpholinomethyl)phenyl)-3-((4-(trifluoromethyl)pyridin-2-yl)oxy)benzamide] | – | – | – | – | – | – | – | – | – | – | – | – | – | – | – | 0.4449 | 0.457 |
